The target of the assay is Voltage-gated inwardly rectifying potassium channel KCNH2 (Homo sapiens, UniProt Q12809). Nature of the assay: Inhibition of human ERG.

Molecules are shown by their SMILES. A value given as a limit tells only on which side of the number the result lay.

Voltage-gated inwardly rectifying potassium channel KCNH2, sequence (Q12809 whole entry): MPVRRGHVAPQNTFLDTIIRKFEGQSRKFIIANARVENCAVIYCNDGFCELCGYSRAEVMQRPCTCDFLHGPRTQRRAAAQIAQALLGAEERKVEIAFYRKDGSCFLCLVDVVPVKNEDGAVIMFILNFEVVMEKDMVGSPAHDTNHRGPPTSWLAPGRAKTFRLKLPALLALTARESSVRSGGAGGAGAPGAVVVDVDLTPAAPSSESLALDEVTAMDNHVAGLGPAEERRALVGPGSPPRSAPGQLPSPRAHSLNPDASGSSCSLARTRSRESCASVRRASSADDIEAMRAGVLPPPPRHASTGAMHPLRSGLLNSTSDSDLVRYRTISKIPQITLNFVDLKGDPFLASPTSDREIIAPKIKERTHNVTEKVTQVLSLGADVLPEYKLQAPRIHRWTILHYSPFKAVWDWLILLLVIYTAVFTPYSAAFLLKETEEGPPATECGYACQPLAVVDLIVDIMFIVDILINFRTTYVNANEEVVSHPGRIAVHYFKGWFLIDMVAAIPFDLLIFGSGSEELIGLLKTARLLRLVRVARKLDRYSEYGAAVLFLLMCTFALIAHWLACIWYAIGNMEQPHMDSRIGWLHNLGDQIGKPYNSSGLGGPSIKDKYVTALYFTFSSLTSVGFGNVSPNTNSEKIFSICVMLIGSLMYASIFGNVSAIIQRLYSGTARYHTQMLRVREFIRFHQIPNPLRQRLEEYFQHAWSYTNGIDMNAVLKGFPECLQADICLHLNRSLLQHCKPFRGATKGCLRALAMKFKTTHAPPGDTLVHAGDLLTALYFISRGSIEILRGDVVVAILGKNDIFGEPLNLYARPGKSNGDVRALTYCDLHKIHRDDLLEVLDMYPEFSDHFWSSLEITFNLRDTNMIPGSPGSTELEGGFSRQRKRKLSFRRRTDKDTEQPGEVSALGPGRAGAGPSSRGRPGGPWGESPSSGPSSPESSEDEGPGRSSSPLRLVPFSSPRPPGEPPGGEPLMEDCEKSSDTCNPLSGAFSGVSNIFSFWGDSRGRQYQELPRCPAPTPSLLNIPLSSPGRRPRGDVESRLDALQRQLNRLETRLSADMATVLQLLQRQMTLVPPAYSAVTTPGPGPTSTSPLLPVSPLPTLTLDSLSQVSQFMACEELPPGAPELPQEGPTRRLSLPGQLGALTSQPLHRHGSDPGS

Turning to `Cc1cnc(NC(=O)/C(=N/N2CCCC2)c2ccc(S(=O)(=O)C3CC3)cc2)s1`, the IC50 (commonly the midpoint of a concentration-inhibition curve) is above 100 µM.

On to `Cc1nnc(NC(=O)/C(=N/N2CCCC2)c2ccc(S(=O)(=O)C3CC3)cc2)s1`, for which the IC50 was above 100 µM.

In turn, `O=C(Nc1ncc(Cl)s1)/C(=N/N1CCCC1)c1ccc(S(=O)(=O)C2CC2)cc1` had an IC50 of 16.7 µM.

For the compound `CC(=O)N1CCN(Cc2cnc(NC(=O)/C(=N/N3CCCC3)c3ccc(S(=O)(=O)C4CC4)cc3)s2)CC1`, the IC50 is above 100 µM.

In turn, `O=C(Nc1nccs1)/C(=N/N1CCCC1)c1ccc(S(=O)(=O)C2CC2)cc1` gave an IC50 of 17.5 µM.

For the origin of these results see ChEMBL document CHEMBL4622891, “Design, synthesis, and pharmacological evaluation of 2-(4-sulfonylphenyl)-2-[(E)-pyrrolidin-1-ylimino]-N-thiazoleacetamides as glucokinase activators” (Bioorg Med Chem Lett, 2020).
